Several values for one entry are separate records, joined by “and”; a condition that tells them apart may be missing. Equal values may be shown once.
Experiment: In vitro phase I metabolic stability in male SD rat hepatic microsomes
Format: in vitro ADME
Conditions: for Peak area ratio (test compound/testosterone-D3 (internal standard)), mean value: mean of triplicate; for Peak area ratio (test compound/testosterone-D3 (internal standard)): single replicates -1, -2, -3
Description: Phase I metabolic stability kit (purchased from HUIZHI HEYUAN BIOTECHNOLOGY (BEIJING) CO., LTD), with the following components of the product:
Positive substrate testosterone solution (10 mM): diluted with acetonitrile to prepare a 200 μM solution for later use; stop solution & internal standard (testosterone-D3): dissolved with acetonitrile to prepare a 5 ng/mL solution for later use.
• 1) all components of the kit were thawed in an ice bath and placed on ice for later use; • 2) an incubation system (taking 200 μL system as an example) was prepared:
• 3) 160 μL of pre-incubation solution B was added into the centrifuge tube containing 40 μL of pre-incubation solution A, uniform mixing was performed by pipetting three times, and the resulting mixture was immediately placed in a water bath at 37° C. for incubation and timing was started; • 4) at predetermined incubation time points (0, 5, 10, 15, 30, 45, 60 minutes), the incubation solution was quantitatively taken out, and 200 μL of stop solution (5 ng/mL testosterone-D3 in acetonitrile, pre-chilled at 4° C.) was added to terminate the reaction (stop solution volume: incubation system volume=1:1). Experimental samples were prepared in triplicate at each time point.
To verify the validity of the experiment, a positive control group was established concurrently in the whole experiment to evaluate whether the incubation system functioned properly, with the preparation method as follows: the compound to be tested was replaced with the positive substrate testosterone (200 μM in acetonitrile) from the phase I metabolic stability kit, and the other components of the incubation system and experimental method were the same as those of the experimental group.
The ratio of the chromatographic peak area of the compound to be tested to the chromatographic peak area of the testosterone-D3 (internal standard) was used as the calculated data. By taking the peak area ratio at time zero of the test compound as 100%, the remaining percentages were calculated by comparing the peak area ratio at each time point with the peak area ratio at time zero, and the natural logarithms of the remaining percentages of the substrate at each time point are then subjected to linear regression against the incubation times to obtain the slope k. Therefore, the in vitro metabolic half-life (T1/2) and intrinsic clearance (CLint) were calculated using the following formulas: […]

C[C@]12CC[C@H]3[C@@H](CCC4=CC(=O)CC[C@@]43C)[C@@H]1CC[C@@H]2O [Positive control, testosterone]
Peak area ratio (test compound/testosterone-D3 (internal standard)), mean value (incubation time 0 min): 20.01
Peak area ratio (test compound/testosterone-D3 (internal standard)) (incubation time 0 min): 20.12 and 19.58 and 20.33
Peak area ratio (test compound/testosterone-D3 (internal standard)), mean value (incubation time 10 min): 0.06
Peak area ratio (test compound/testosterone-D3 (internal standard)) (incubation time 10 min): 0.05 and 0.08 and 0.06

— US20260109731A1, “NE[…] USE THEREOF” (HUNAN MINGRUI PHARMACEUTICAL CO., LTD., priority 2023, published 2026)
